The structures appear in SMILES notation.

The target in one assay is TP53-binding protein 1 (Homo sapiens, UniProt Q12888). Briefly: Binding affinity to 6His-tagged and human 53BP1 tandem TUDOR domain (1488 to 1611 residues) expressed in Escherichia coli BL21(DE3)-T1R by ITC method. (In general: In ITC the heat of successive injections is recorded.)
Assay [1] has as its target T1, Lysine-specific demethylase 4A (Homo sapiens, UniProt O75164).
T1 sequence (O75164 whole entry): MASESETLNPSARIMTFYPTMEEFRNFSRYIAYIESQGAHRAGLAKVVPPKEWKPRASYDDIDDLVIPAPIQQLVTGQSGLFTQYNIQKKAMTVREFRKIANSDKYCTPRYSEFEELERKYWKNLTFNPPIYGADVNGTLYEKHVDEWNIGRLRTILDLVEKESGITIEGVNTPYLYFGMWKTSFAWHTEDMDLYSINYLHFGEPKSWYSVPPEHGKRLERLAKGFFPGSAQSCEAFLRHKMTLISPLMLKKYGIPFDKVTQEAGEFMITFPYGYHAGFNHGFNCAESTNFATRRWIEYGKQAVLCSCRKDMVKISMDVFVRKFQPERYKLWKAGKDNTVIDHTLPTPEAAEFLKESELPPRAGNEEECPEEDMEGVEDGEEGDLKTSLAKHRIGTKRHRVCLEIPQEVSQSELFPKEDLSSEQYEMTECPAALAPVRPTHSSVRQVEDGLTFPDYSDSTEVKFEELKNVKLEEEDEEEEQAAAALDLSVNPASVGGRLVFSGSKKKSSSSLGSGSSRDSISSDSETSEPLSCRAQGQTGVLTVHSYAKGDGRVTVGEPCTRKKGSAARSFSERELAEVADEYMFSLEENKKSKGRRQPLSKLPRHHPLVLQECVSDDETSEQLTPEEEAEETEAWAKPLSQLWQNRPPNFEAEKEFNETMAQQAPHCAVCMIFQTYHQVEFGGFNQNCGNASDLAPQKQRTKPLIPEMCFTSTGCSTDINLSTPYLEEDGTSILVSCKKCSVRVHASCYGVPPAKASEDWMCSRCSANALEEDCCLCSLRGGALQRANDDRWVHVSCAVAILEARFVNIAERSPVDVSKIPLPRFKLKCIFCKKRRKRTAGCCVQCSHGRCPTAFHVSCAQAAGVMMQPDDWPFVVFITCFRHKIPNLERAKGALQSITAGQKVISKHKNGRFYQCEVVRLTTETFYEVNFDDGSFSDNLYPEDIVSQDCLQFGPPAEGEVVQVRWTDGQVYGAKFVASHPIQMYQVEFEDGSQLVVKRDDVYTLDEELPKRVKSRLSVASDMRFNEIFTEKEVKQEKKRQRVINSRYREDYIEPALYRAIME
The assay is described as follows: Binding affinity to thrombin cleavable N-terminal 6His tagged and 13C-IVLM labeled human KDM4A tandem TUDOR domain (897 to 1011 residues) expressed in Escherichia coli BL21(DE3)-T1R by ITC method.

Assay [2] addresses T2, Lysine-specific demethylase 4C (Homo sapiens, UniProt Q9H3R0).
T2 sequence (Q9H3R0 whole entry): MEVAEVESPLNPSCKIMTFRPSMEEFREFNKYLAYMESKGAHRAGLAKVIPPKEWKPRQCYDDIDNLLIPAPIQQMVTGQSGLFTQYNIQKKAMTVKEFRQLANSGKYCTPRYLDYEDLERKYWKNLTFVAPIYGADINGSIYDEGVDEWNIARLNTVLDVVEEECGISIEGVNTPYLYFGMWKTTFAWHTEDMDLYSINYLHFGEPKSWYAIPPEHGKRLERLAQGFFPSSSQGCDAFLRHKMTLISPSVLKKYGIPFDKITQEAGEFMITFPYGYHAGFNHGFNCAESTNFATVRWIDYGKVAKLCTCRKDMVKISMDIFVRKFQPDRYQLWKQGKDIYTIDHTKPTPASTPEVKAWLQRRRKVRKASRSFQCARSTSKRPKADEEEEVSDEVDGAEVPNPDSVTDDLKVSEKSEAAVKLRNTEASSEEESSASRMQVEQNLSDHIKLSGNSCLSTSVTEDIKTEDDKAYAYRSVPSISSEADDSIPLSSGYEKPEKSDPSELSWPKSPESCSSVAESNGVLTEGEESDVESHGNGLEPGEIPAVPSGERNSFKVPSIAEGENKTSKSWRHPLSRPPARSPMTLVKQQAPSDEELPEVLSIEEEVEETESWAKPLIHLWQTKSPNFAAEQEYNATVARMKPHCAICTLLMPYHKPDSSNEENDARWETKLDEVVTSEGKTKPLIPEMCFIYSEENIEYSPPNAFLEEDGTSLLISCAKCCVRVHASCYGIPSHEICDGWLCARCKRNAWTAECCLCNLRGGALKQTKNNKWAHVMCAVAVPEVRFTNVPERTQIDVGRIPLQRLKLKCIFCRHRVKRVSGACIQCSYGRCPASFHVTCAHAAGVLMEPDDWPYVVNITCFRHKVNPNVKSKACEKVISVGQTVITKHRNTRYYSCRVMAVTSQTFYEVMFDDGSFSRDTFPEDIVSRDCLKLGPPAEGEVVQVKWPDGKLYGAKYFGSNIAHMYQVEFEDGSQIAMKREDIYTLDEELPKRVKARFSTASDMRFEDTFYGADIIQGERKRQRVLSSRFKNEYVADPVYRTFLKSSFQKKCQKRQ
The assay is described as follows: Binding affinity to 6His-tagged and human KDM4C tandem TUDOR domain (874 to 990 residues) expressed in Escherichia coli BL21(DE3)-T1R by ITC method.

Chain of TP53-binding protein 1 (Q12888 whole entry, the tested form may be a part): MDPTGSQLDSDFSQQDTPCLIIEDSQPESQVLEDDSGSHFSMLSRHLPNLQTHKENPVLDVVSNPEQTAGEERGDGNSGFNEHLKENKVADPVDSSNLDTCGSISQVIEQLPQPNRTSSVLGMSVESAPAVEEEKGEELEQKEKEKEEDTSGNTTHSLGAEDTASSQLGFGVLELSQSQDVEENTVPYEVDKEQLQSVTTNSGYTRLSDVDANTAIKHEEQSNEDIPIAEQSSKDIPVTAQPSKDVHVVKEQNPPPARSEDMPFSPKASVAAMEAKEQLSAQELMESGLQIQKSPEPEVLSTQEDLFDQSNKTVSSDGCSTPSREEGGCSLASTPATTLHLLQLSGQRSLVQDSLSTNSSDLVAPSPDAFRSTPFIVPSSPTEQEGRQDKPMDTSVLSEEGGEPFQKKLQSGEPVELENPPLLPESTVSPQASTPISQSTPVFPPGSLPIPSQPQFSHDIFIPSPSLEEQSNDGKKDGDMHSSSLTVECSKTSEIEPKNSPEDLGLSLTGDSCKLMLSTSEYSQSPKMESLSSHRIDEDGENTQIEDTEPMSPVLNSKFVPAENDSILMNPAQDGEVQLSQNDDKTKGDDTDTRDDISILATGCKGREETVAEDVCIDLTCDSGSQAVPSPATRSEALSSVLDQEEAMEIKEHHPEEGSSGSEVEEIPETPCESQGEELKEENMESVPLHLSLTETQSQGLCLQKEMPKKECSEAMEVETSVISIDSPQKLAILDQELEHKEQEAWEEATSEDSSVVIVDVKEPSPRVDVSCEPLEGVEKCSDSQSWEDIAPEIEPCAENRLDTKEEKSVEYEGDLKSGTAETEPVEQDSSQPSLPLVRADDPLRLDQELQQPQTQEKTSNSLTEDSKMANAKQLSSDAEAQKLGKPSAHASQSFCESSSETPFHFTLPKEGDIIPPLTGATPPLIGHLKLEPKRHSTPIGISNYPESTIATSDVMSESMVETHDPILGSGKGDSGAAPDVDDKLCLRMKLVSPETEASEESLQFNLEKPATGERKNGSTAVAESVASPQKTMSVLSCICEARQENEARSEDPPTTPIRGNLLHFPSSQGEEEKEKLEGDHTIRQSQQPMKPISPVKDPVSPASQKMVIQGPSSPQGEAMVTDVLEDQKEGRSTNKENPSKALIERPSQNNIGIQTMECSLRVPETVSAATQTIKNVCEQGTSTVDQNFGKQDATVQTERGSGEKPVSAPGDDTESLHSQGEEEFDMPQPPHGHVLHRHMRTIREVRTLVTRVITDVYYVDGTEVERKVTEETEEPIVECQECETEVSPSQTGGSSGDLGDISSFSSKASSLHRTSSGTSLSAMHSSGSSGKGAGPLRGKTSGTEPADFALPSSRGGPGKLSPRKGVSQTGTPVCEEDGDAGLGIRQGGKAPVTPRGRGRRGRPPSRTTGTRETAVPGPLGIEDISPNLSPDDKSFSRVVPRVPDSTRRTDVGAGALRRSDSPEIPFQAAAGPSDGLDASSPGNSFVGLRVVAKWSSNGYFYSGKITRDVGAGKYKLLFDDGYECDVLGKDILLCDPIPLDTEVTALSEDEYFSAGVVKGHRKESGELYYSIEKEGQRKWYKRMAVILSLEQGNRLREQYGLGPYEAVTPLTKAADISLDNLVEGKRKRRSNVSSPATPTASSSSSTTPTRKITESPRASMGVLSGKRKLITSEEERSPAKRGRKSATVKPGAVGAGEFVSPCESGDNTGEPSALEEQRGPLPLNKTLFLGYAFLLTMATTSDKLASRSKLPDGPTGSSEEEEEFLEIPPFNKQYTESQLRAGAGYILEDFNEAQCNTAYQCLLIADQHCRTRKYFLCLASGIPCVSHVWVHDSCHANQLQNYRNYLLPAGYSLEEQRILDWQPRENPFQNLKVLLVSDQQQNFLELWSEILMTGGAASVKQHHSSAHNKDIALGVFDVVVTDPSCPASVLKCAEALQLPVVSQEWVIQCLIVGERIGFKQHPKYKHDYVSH

In the case of `CN(C)C[C@H]1C2CCC(c3ccccc3)(C2)[C@H]1O` (stereo partly drawn), the figures for the Kd result (at TP53-binding protein 1; in assay [1]; in assay [2]) were “Not Active”, 81.7 µM and 129 µM, respectively.

These data come from ChEMBL document CHEMBL4190382, “Targeting lysine specific demethylase 4A (KDM4A) tandem TUDOR domain - A fragment based approach” (Bioorg Med Chem Lett, 2018).
